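Method: 48-hour compound exposure of cells in 96-well plates, five concentrations, linear interpolation of endpoints. Abbreviation: GI50, concentration required for 50% inhibition of growth. At the TGI there is no net growth.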
Tests used:
Experiment in all cases: DTP human tumour cell line panel, 48 h
SN12C renal = test system: SN12C renal
IGROV1 ovarian = test system: IGROV1 ovarian
ACHN renal = test system: ACHN renal
HOP-92 NSCLC = test system: HOP-92 NSCLC
PC-3 prostate = test system: PC-3 prostate
SF-539 CNS = test system: SF-539 CNS
RPMI-8226 leukemia = test system: RPMI-8226 leukemia
COLO 205 colon = test system: COLO 205 colon
SR leukemia = test system: SR leukemia
U251 CNS = test system: U251 CNS
RXF 393 renal = test system: RXF 393 renal
MALME-3M melanoma = test system: MALME-3M melanoma
SK-MEL-5 melanoma = test system: SK-MEL-5 melanoma
OVCAR-5 ovarian = test system: OVCAR-5 ovarian
OVCAR-8 ovarian = test system: OVCAR-8 ovarian
UACC-257 melanoma = test system: UACC-257 melanoma
OVCAR-3 ovarian = test system: OVCAR-3 ovarian
T-47D breast = test system: T-47D breast
OVCAR-4 ovarian = test system: OVCAR-4 ovarian
SF-268 CNS = test system: SF-268 CNS
MCF7 breast = test system: MCF7 breast
BT-549 breast = test system: BT-549 breast
K-562 leukemia = test system: K-562 leukemia
UO-31 renal = test system: UO-31 renal
SW-620 colon = test system: SW-620 colon
MOLT-4 leukemia = test system: MOLT-4 leukemia
SK-MEL-28 melanoma = test system: SK-MEL-28 melanoma
TK-10 renal = test system: TK-10 renal
HT29 colon = test system: HT29 colon

Q: Which results are given for `Cc1ccc(C(=O)Nc2ccc(CNCCN3CCOCC3)c(C(F)(F)F)c2)cc1C#Cc1cnc2cccnn12`?
A: GI50 (SN12C renal): 1750 nM; TGI (SN12C renal): 5680 nM; GI50 (IGROV1 ovarian): 1270 nM; TGI (IGROV1 ovarian): 3430 nM; GI50 (ACHN renal): 2820 nM; TGI (ACHN renal): 9550 nM; GI50 (HOP-92 NSCLC): 761 nM; TGI (HOP-92 NSCLC): 3120 nM; GI50 (PC-3 prostate): 2070 nM; TGI (PC-3 prostate): 6170 nM; GI50 (SF-539 CNS): 1320 nM; TGI (SF-539 CNS): 2670 nM; GI50 (RPMI-8226 leukemia): 1420 nM; TGI (RPMI-8226 leukemia): 3830 nM; GI50 (COLO 205 colon): 1230 nM; TGI (COLO 205 colon): 3820 nM; GI50 (SR leukemia): 1400 nM; TGI (SR leukemia): 6640 nM; GI50 (U251 CNS): 1840 nM; TGI (U251 CNS): 4650 nM; GI50 (RXF 393 renal): 1630 nM; TGI (RXF 393 renal): 3210 nM; GI50 (MALME-3M melanoma): 229 nM; TGI (MALME-3M melanoma): 1870 nM; GI50 (SK-MEL-5 melanoma): 1450 nM; TGI (SK-MEL-5 melanoma): 2810 nM; GI50 (OVCAR-5 ovarian): 1850 nM; TGI (OVCAR-5 ovarian): 8170 nM; GI50 (OVCAR-8 ovarian): 3090 nM; TGI (OVCAR-8 ovarian): 10800 nM; GI50 (UACC-257 melanoma): 1690 nM; TGI (UACC-257 melanoma): 3570 nM; GI50 (OVCAR-3 ovarian): 2390 nM; TGI (OVCAR-3 ovarian): 6240 nM; GI50 (T-47D breast): 2370 nM; TGI (T-47D breast): 6730 nM; GI50 (OVCAR-4 ovarian): 2520 nM; TGI (OVCAR-4 ovarian): 14500 nM; GI50 (SF-268 CNS): 2460 nM; TGI (SF-268 CNS): 7040 nM; GI50 (MCF7 breast): 1420 nM; TGI (MCF7 breast): 3200 nM; GI50 (BT-549 breast): 2270 nM; TGI (BT-549 breast): 4560 nM; TGI (K-562 leukemia): 11600 nM; GI50 (UO-31 renal): 1450 nM; TGI (UO-31 renal): 3470 nM; GI50 (SW-620 colon): 1660 nM; TGI (SW-620 colon): 10500 nM; GI50 (MOLT-4 leukemia): 1310 nM; TGI (MOLT-4 leukemia): 5370 nM; GI50 (SK-MEL-28 melanoma): 1220 nM; TGI (SK-MEL-28 melanoma): 2740 nM; GI50 (TK-10 renal): 2610 nM; TGI (TK-10 renal): 7510 nM; GI50 (HT29 colon): 794 nM
